Our source for the IC50 values is patent US9493446B2, “Orexin receptor antagonists which are [ortho bi-(hetero-)aryl]-[2-(meta bi-(hetero-)aryl)-pyrrolidin-1-yl]-methanone derivatives” (Actelion Pharmaceuticals Ltd, priority 2012, dated 2016).

Like-named read-outs stand apart in the source and are kept apart here.

In one test the target is human orexin-2 receptor (Homo sapiens (Human), UniProt O43614). The test can be described thus: Intracellular calcium measurement (FLIPR), CHO cells expressing human orexin-2 receptor, 3 nM orexin-A. To be noted: read-out: IC50 OX2. The class given is cell-based. The method, boiled down:
(§1)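 CHO transfectants were dye-loaded (fluo-4 AM, probenecid) and exposed to antagonist for 120 min ahead of agonist.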
Background: Calcium assays in cells follow changes in intracellular calcium, usually with a dye or a luminescent sensor.

Another test concerns the target orexin-1 (Homo sapiens (Human), UniProt O43613). The test can be described thus: Intracellular calcium measurement (FLIPR), CHO cells expressing human orexin-1 receptor, 3 nM orexin-A. The format is cell-based. As to conditions: read-out: IC50 OX1. The essentials:
as §1

The mark [1] stands for this setting: CHO cells expressing human orexin-2 receptor, FLIPR, 3 nM orexin-A, geometric mean if determined several times.
The mark [2] stands for this setting: CHO cells expressing human orexin-1 receptor, FLIPR, 3 nM orexin-A, geometric mean if determined several times.

human orexin-2 receptor, sequence (O43614 whole entry): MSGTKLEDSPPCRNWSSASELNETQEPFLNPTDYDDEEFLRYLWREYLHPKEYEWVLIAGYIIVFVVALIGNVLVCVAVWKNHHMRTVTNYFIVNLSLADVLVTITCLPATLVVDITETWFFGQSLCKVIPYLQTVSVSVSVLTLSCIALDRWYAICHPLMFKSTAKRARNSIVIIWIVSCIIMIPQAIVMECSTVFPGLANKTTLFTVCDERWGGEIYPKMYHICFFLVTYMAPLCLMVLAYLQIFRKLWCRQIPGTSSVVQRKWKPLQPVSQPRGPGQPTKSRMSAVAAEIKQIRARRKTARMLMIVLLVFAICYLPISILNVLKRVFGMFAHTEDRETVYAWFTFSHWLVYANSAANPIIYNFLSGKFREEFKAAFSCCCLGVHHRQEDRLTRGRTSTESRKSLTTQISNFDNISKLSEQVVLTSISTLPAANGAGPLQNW
orexin-1, sequence (O43613 whole entry): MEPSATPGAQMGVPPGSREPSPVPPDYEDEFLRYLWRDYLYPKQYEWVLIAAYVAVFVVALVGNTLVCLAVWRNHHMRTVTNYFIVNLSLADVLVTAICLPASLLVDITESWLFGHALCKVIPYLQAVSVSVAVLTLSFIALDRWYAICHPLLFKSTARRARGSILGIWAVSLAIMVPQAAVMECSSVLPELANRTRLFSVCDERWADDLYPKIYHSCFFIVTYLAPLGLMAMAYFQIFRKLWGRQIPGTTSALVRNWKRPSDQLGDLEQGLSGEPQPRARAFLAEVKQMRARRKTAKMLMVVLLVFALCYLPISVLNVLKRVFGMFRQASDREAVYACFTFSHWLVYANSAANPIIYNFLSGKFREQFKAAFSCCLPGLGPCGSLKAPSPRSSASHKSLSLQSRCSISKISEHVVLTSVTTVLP

One may read the IC50 as the midpoint of a concentration-inhibition curve. As for `Cc1cc(C(=O)N2CCC[C@H]2c2noc(-c3cccc(Cl)c3C)n2)c(-n2nccn2)cc1C` [compound 321], the IC50 came to 1 nM on human orexin-2 receptor (setting [1]) and 7 nM at orexin-1.
On to `COc1cc(C(=O)N2CCC[C@H]2c2noc(-c3cccc(Cl)c3C)n2)c(-n2nccn2)cc1F` [compound 322], for which the IC50 on human orexin-2 receptor (setting [1]) was determined as 6 nM; at orexin-1 (setting [2]) it was 158 nM.
Turning to `CCOc1c(F)cccc1-c1nc([C@@H]2CCCN2C(=O)c2cc(OC)c(C)cc2-n2nccn2)no1` [compound 323, {(S)-2-[5-(2-Ethoxy-3-fluoro-phenyl)-[1,2,4]oxadiazol-3-yl]-pyrrolidin-1-yl}-(5-methoxy-4-methyl-2-[1,2,3]triazol-2-yl-phenyl)-methanone], the IC50 at human orexin-2 receptor (setting [1]) is 1 nM; on orexin-1 (setting [2]), 9 nM.
In the same order, the values of `CCOc1c(F)cccc1-c1nc([C@@H]2CCCN2C(=O)c2cc(OC)c(F)cc2-n2nccn2)no1` [compound 325, {(S)-2-[5-(2-Ethoxy-3-fluoro-phenyl)-[1,2,4]oxadiazol-3-yl]-pyrrolidin-1-yl}-(4-fluoro-5-methoxy-2-[1,2,3]triazol-2-yl-phenyl)-methanone] are 6 nM and 151 nM.
Take `CCOc1c(F)cccc1-c1nc([C@@H]2CCCN2C(=O)c2cc(OC)ccc2-n2nccn2)no1` [compound 326, {(S)-2-[5-(2-Ethoxy-3-fluoro-phenyl)-[1,2,4]oxadiazol-3-yl]-pyrrolidin-1-yl}-(5-methoxy-2-[1,2,3]triazol-2-yl-phenyl)-methanone]: the IC50 was found to be 3 nM at human orexin-2 receptor (setting [1]) and 27 nM on orexin-1 (setting [2]).
As to `CCOc1c(F)cccc1-c1nc([C@@H]2CCCN2C(=O)c2cc(Cl)ccc2-n2nccn2)no1` [compound 327], the figures for the IC50 on human orexin-2 receptor and at orexin-1 (setting [2]) were 4 nM and 38 nM, respectively.
Turning to `CCOc1c(F)cccc1-c1nc([C@@H]2CCCN2C(=O)c2ccc(C)cc2-n2nccn2)no1` [compound 328, {(S)-2-[5-(2-Ethoxy-3-fluoro-phenyl)-[1,2,4]oxadiazol-3-yl]-pyrrolidin-1-yl}-(4-methyl-2-[1,2,3]triazol-2-yl-phenyl)-methanone], the IC50 at human orexin-2 receptor (setting [1]) was 4 nM; at orexin-1 (setting [2]), 16 nM.
As for `CCOc1c(F)cccc1-c1nc([C@@H]2CCCN2C(=O)c2ccc(Cl)cc2-n2nccn2)no1` [compound 329], the IC50 at human orexin-2 receptor was determined as 4 nM; on orexin-1 (setting [2]), 16 nM.
In the case of `CCOc1ncccc1-c1nc([C@@H]2CCCN2C(=O)c2cc(C)ccc2-n2nccn2)no1` [compound 330, {(S)-2-[5-(2-Ethoxy-pyridin-3-yl)-[1,2,4]oxadiazol-3-yl]-pyrrolidin-1-yl}-(5-methyl-2-[1,2,3]triazol-2-yl-phenyl)-methanone], the values for the IC50 at human orexin-2 receptor (setting [1]) and at orexin-1 (setting [2]) were 2 nM and 5 nM, respectively.
In the case of `CCOc1ncccc1-c1nc([C@@H]2CCCN2C(=O)c2cc(C)c(C)cc2-n2nccn2)no1` [compound 331, (4,5-Dimethyl-2-[1,2,3]triazol-2-yl-phenyl)-{(S)-2-[5-(2-ethoxy-pyridin-3-yl)-[1,2,4]oxadiazol-3-yl]-pyrrolidin-1-yl}-methanone], the IC50 amounted to 0.5 nM at human orexin-2 receptor (setting [1]) and 1 nM on orexin-1 (setting [2]).
In the same order, the values of `CCOc1ncccc1-c1nc([C@@H]2CCCN2C(=O)c2cc(OC)c(F)cc2-n2nccn2)no1` [compound 332, {(S)-2-[5-(2-Ethoxy-pyridin-3-yl)-[1,2,4]oxadiazol-3-yl]-pyrrolidin-1-yl}-(4-fluoro-5-methoxy-2-[1,2,3]triazol-2-yl-phenyl)-methanone] are 4 nM and 99 nM.
In the same order, the values of `Cc1c(F)cccc1-c1nc([C@@H]2CCCN2C(=O)c2ccccc2-n2nccn2)no1` [compound 333, {(S)-2-[5-(3-Fluoro-2-methyl-phenyl)-[1,2,4]oxadiazol-3-yl]-pyrrolidin-1-yl}-(2-[1,2,3]triazol-2-yl-phenyl)-methanone] are 17 nM and 644 nM.
In the same order, the values of `COc1c(F)cccc1-c1nc([C@@H]2CCCN2C(=O)c2ccccc2-n2nccn2)no1` [compound 334, {(S)-2-[5-(3-Fluoro-2-methoxy-phenyl)-[1,2,4]oxadiazol-3-yl]-pyrrolidin-1-yl}-(2-[1,2,3]triazol-2-yl-phenyl)-methanone] are 12 nM and 320 nM.
As for `Cc1ccc(-n2nccn2)c(C(=O)N2CCC[C@H]2c2noc(-c3cccc(F)c3C)n2)c1` [compound 335, {(S)-2-[5-(3-Fluoro-2-methyl-phenyl)-[1,2,4]oxadiazol-3-yl]-pyrrolidin-1-yl}-(5-methyl-2-[1,2,3]triazol-2-yl-phenyl)-methanone], the IC50 was found to be 4 nM at human orexin-2 receptor (setting [1]) and 65 nM on orexin-1 (setting [2]).
Turning to `COc1c(F)cccc1-c1nc([C@@H]2CCCN2C(=O)c2cc(C)ccc2-n2nccn2)no1` [compound 336, {(S)-2-[5-(3-Fluoro-2-methoxy-phenyl)-[1,2,4]oxadiazol-3-yl]-pyrrolidin-1-yl}-(5-methyl-2-[1,2,3]triazol-2-yl-phenyl)-methanone], the 50% inhibitory concentration (IC50) was determined as 3 nM on human orexin-2 receptor (setting [1]) and 45 nM at orexin-1 (setting [2]).
The corresponding values for `Cc1ccc(C(=O)N2CCC[C@H]2c2noc(-c3cccc(F)c3C)n2)c(-n2nccn2)c1` [compound 337, {(S)-2-[5-(3-Fluoro-2-methyl-phenyl)-[1,2,4]oxadiazol-3-yl]-pyrrolidin-1-yl}-(4-methyl-2-[1,2,3]triazol-2-yl-phenyl)-methanone] are 14 nM and 112 nM.
In the same order, the values of `COc1c(F)cccc1-c1nc([C@@H]2CCCN2C(=O)c2ccc(C)cc2-n2nccn2)no1` [compound 338, {(S)-2-[5-(3-Fluoro-2-methoxy-phenyl)-[1,2,4]oxadiazol-3-yl]-pyrrolidin-1-yl}-(4-methyl-2-[1,2,3]triazol-2-yl-phenyl)-methanone] are 4 nM and 27 nM.
In the same order, the values of `Cc1cc(C(=O)N2CCC[C@H]2c2noc(-c3cccc(F)c3C)n2)c(-n2nccn2)cc1C` [compound 339, (4,5-Dimethyl-2-[1,2,3]triazol-2-yl-phenyl)-{(S)-2-[5-(3-fluoro-2-methyl-phenyl)-[1,2,4]oxadiazol-3-yl]-pyrrolidin-1-yl}-methanone] are 2 nM and 15 nM.
In the case of `COc1cc(C(=O)N2CCC[C@H]2c2noc(-c3cccc(F)c3OC)n2)c(-n2nccn2)cc1C` [compound 341, {(S)-2-[5-(3-Fluoro-2-methoxy-phenyl)-[1,2,4]oxadiazol-3-yl]-pyrrolidin-1-yl}-(5-methoxy-4-methyl-2-[1,2,3]triazol-2-yl-phenyl)-methanone], the half-inhibitory concentration (IC50) came to 1 nM on human orexin-2 receptor (setting [1]) and 13 nM on orexin-1 (setting [2]).
Take `Cc1c(F)cccc1-c1nc([C@@H]2CCCN2C(=O)c2cc(Cl)ccc2-n2nccn2)no1` [compound 342]: the IC50 on human orexin-2 receptor was 13 nM; on orexin-1 (setting [2]), 152 nM.
On to `COc1c(F)cccc1-c1nc([C@@H]2CCCN2C(=O)c2cc(Cl)ccc2-n2nccn2)no1` [compound 343], for which the figures for the IC50 at human orexin-2 receptor (setting [1]) and on orexin-1 (setting [2]) were 3 nM and 46 nM, respectively.
In the same order, the values of `CCOc1ncccc1-c1nc([C@@H]2CCCN2C(=O)c2ccc(C)cc2-n2nccn2)no1` [compound 345] are 11 nM and 33 nM.
In the same order, the values of `CCOc1ncccc1-c1nc([C@@H]2CCCN2C(=O)c2cc(Cl)ccc2-n2nccn2)no1` [compound 346] are 2 nM and 23 nM.
In the same order, the values of `COc1cc(C(=O)N2CCC[C@H]2c2noc(-c3cccc(Cl)c3OC)n2)c(-n2nccn2)cc1Cl` [compound 347] are 1 nM and 15 nM.
For `COc1cc(C(=O)N2CCC[C@H]2c2noc(-c3cccc(Cl)c3OC)n2)c(-n2nccn2)cc1C` [compound 348], the concentration for half-maximal inhibition (IC50) on human orexin-2 receptor (setting [1]) came to 1 nM; at orexin-1 (setting [2]) it was 10 nM.
The corresponding values for `COc1c(Cl)cccc1-c1nc([C@@H]2CCCN2C(=O)c2ccc(Cl)cc2-n2nccn2)no1` [compound 349] are 3 nM and 27 nM.
In the same order, the values of `COc1cc(C(=O)N2CCC[C@H]2c2noc(-c3cc(C)ccc3OC)n2)c(-n2nccn2)cc1Cl` [compound 350] are 2 nM and 36 nM.
In the case of `COc1c(Cl)cccc1-c1nc([C@@H]2CCCN2C(=O)c2cc(C)ccc2-n2nccn2)no1` [compound 351], the IC50 is 4 nM on human orexin-2 receptor (setting [1]) and 22 nM on orexin-1.
With `COc1cc(C)cc(-c2nc([C@@H]3CCCN3C(=O)c3cc(OC)c(Cl)cc3-n3nccn3)no2)c1` [compound 352], the IC50 on human orexin-2 receptor was 4 nM; on orexin-1 (setting [2]), 19 nM.
For the molecule `COc1ccc(C)c(-c2nc([C@@H]3CCCN3C(=O)c3cc(OC)c(Cl)cc3-n3nccn3)no2)c1` [compound 353], the values for the IC50 at human orexin-2 receptor (setting [1]) and at orexin-1 (setting [2]) were 5 nM and 54 nM, respectively.
In the same order, the values of `COc1c(Cl)cccc1-c1nc([C@@H]2CCCN2C(=O)c2ccc(C)cc2-n2nccn2)no1` [compound 354] are 5 nM and 12 nM.
The corresponding values for `COc1cc(C(=O)N2CCC[C@H]2c2noc(-c3cccc(OC)c3C)n2)c(-n2nccn2)cc1Cl` [compound 355] are 8 nM and 188 nM.
As for `COc1cccc(-c2nc([C@@H]3CCCN3C(=O)c3cc(C)c(C)cc3-n3nccn3)no2)c1C` [compound 356, (4,5-Dimethyl-2-[1,2,3]triazol-2-yl-phenyl)-{(S)-2-[5-(3-methoxy-2-methyl-phenyl)-[1,2,4]oxadiazol-3-yl]-pyrrolidin-1-yl}-methanone], the IC50 at human orexin-2 receptor (setting [1]) was found to be 7 nM; on orexin-1 (setting [2]), 57 nM.
As for `COc1c(Cl)cccc1-c1nc([C@@H]2CCCN2C(=O)c2cc(Cl)ccc2-n2nccn2)no1` [compound 357], the IC50 on human orexin-2 receptor amounted to 17 nM; at orexin-1 (setting [2]), 81 nM.
